In patent publication US12123051B2, “Nucleic acid ratio determination” (priority 2017, dated 2024):
≈ marks a conversion by molar mass, not a printed value. Where two headings read alike, the source gives them in different places.

Key:
Assay type in all cases: cell-based
[1] = test system: Chlamydia trachomatis strains 1-5; test: Minimum inhibitory concentration (MIC) of antibiotics, predetermined by standard procedures
Method: After infection, there was no change of media at the 4 h time point. Once in an exponential growth phase, 20 hours PI, cells were treated with a single dose of different antibiotics. […] Strains used for this treatment protocol were Strain 1) serovar D lab strain (UW-3/Cx), Strain 2) serovar L2 wild type lab strain (434/Bu), Strain 3) serovar L2 lab created mutant strain, resistant to trimethoprim, Strain 4) serovar L2 lab created mutant strain, resistant to Spectinomycin and Strain 5) serovar L2 lab created mutant strain, resistant to Rifampicin. MIC for all serovars and each antibiotic was predetermined, using standard procedures documented in literature, and listed in the table below. […] Strains 1, 2, 3 and 4 are also susceptible to rifampicin, whilst strain 5 is resistant to that same antibiotic. Samples were then incubated at 37° C. with 5% CO2 and harvested at 1 hour PT, using SPG buffer and extracted immediately. Two biological replicates were obtained for each condition.

[2] = test system: Chlamydia trachomatis (serovar D) in HEp-2 cells; test: Antibiotic susceptibility testing by VITA PCR, azithromycin, Treatment Protocol B; conditions: Example 7: 0.128 μg/mL at 24 h PI
Method: The levels of GAT and NED were estimated and used to calculate VITA Index.
(§1) The ΔCt was calculated as the differences between the Ct values of the NED and GAT1/2 signals.
To measure NED, another region of Chlamydia DNA was co-amplified in the same RT-PCR using primers targeting a region of genomic DNA which is not transcribed. The levels of GAT and NED were estimated and used to calculate VITA Index.
as §1

[3] = test system: Chlamydia trachomatis strains 1-5 in HEp-2 cells; conditions: 1 hour PT
Method: After infection, there was no change of media at the 4 h time point. Once in an exponential growth phase, 20 hours PI, cells were treated with a single dose of different antibiotics. […] Strains used for this treatment protocol were Strain 1) serovar D lab strain (UW-3/Cx), Strain 2) serovar L2 wild type lab strain (434/Bu), Strain 3) serovar L2 lab created mutant strain, resistant to trimethoprim, Strain 4) serovar L2 lab created mutant strain, resistant to Spectinomycin and Strain 5) serovar L2 lab created mutant strain, resistant to Rifampicin. […] Samples were then incubated at 37° C. with 5% CO2 and harvested at 1 hour PT, using SPG buffer and extracted immediately. Two biological replicates were obtained for each condition.
The following example analyses the susceptibility of bacteria to a given drug, by estimation of the change of GAT levels relative to NED in TNA samples. These were then compared between samples treated with antibiotic and not treated (control). […] Treatment was as described in example 1, Treatment E (1.1.5). To obtain a measure GAT, Chlamydia DNA and RNA was amplified by RT-PCR using primers targeting two different locations of the omp1 gene and its transcripts. To measure NED, another region of Chlamydia DNA was co-amplified in the same RT-PCR using primers targeting a region of genomic DNA which is not transcribed. The levels of GAT and NED were estimated and used to calculate VITA Index. Further to this the VITA Indices of treated and untreated samples were used to calculate the ΔVITA Ratio.
Partzyme oligonucleotides, Reporter substrates and PCR primers used for amplification and detection of GAT1, GAT2 and NED were as per example 9 (9.1, 9.2 and 9.3 respectively). The RT-PCR conditions used were as described in Example 9 (9.5) and reactions contained either 5 μL of TNA template (1/1000 dilution) or no target (dH2O).
(§2) Chlamydia DNA and RNA from 2 GAT regions and one NED region, were co-amplified and detected in single RT-PCR from TNA extracted from chlamydia cultures. These cultures were treated with antibiotic or left untreated (control) at an exponential growth phase and harvested at 1 hour post treatment. […] The ΔCt was calculated as the differences between the Ct values of the NED and GAT1/2 signals.
The following example analyses the susceptibility of bacteria to a given drug, by estimation of the change of GAT levels relative to NED in TNA samples. These were then compared between samples treated with antibiotic and not treated (control). […] To obtain a measure GAT, Chlamydia DNA and RNA was amplified by RT-PCR using primers targeting two different locations of the omp1 gene and its transcripts. To measure NED, another region of Chlamydia DNA was co-amplified in the same RT-PCR using primers targeting a region of genomic DNA which is not transcribed. The levels of GAT and NED were estimated and used to calculate VITA Index. Further to this the VITA Indices of treated and untreated samples were used to calculate the ΔVITA.
as §2, with “antibiotic (Rifampicin)” for “antibiotic”, “(control) during the” for “(control) at an”, “at one” for “at 1”

[4] = test system: Chlamydia trachomatis strain 1 and strain 5 in HEp-2 cells; test: Antibiotic susceptibility testing by VITA PCR, rifampicin, short incubation, Treatment Protocol C; conditions: for ΔVITA Ratio A/B: 0.256 μg/mL; for VITA Index: plus antibiotic 0.256 μg/mL
Method: After infection, there was no change of media at the 4 hour time point, essentially creating an unsynchronised population, which would be more similar to in vivo conditions. Once at an exponential growth phase, 20 hours PI, treatment was applied. This was achieved by replacing the DMEM for each well, with addition of either i) no antibiotic, or ii) antibiotic (0.256 μg/mL of Rifampicin). Samples were then either incubated at 37° C. with 5% CO2, and harvested after 5 minutes PT; or incubated at room temperature and harvested after 15 minutes PT. SPG buffer was used for harvest and TNA was extracted immediately after. Strains used for this treatment protocol were Strain 1) serovar D lab strain (UW-3/Cx), susceptible to rifampicin, and Strain 5) serovar L2 lab created mutant strain, resistant to Rifampicin.
The following example estimates the change of GAT levels relative to NED in TNA samples extracted from HEp-2 cells which had been infected with Chlamydia trachomatis strain 1 and strain 5 (serovar D lab strain and serovar L2 strain resistant to rifampicin respectively). TNA was extracted from cells, which had been either treated with the antibiotic Rifampicin at a concentration of 0.256 μg/mL, or not treated (control), at 20 hours post infection whilst in an exponential growth phase. Treatment was as described in example 1, Treatment C (1.1.3). To obtain a measure GAT, Chlamydia DNA and RNA was amplified by RT-PCR using primers targeting two different locations of the omp1 gene and its transcripts. To measure NED, another region of Chlamydia DNA was co-amplified in the same RT-PCR using primers targeting a region of genomic DNA which is not transcribed. The levels of GAT and NED were estimated and used to calculate VITA Index. Further to this the VITA Indices of treated and untreated samples were used to calculate the ΔVITA Ratio.
The reactions contained either 5 μL of TNA template (1/1000 dilution) or no target (dH2O).
Chlamydia DNA and RNA from 2 regions within the omp1 gene and transcripts (GAT1 and GAT2), and one NED region, were co-amplified and detected in single RT-PCR from TNA extracted from chlamydia cultures. These cultures were treated with antibiotic or left untreated (control) at an exponential growth phase. They were incubated for either 5 minutes at 37° C. (FIG. 7D) or 15 minutes at room temperature (FIG. 7E). […] The results were then compared between no treatment reactions (control) and those treated with antibiotic at each time point (FIGS. 7D-E).

[5] = Strain 1, serovar D lab strain (UW-3/Cx)
[6] = Strain 2, serovar L2 wild type lab strain (434/Bu)
[7] = Strain 3, serovar L2 mutant resistant to trimethoprim
[8] = Strain 4, serovar L2 mutant resistant to Spectinomycin
[9] = Strain 5, serovar L2 mutant resistant to Rifampicin
[10] = Resistant strain (strain 5), 5 min incubation PT at 37° C. with 5% CO2
[11] = Resistant strain (strain 5), 15 min incubation PT at room temperature
[12] = Susceptible strain (strain 1), 5 min incubation PT at 37° C. with 5% CO2
[13] = Susceptible strain (strain 1), 15 min incubation PT at room temperature

SMILES: CC[C@H]1OC(=O)[C@H](C)[C@@H](O[C@H]2C[C@@](C)(OC)[C@@H](O)[C@H](C)O2)[C@H](C)[C@@H](O[C@@H]2O[C@H](C)C[C@H](N(C)C)[C@H]2O)[C@](C)(O)C[C@@H](C)CN(C)[C@H](C)[C@@H](O)[C@]1(C)O [Azithromycin]
- Minimum inhibitory concentration (MIC), antibiotic dose [1, 5]: 0.032 µg/mL (≈ 0.0427 µM)
- Minimum inhibitory concentration (MIC), antibiotic dose [1, 6]: 0.032 µg/mL (≈ 0.0427 µM)
- Minimum inhibitory concentration (MIC), antibiotic dose [1, 7]: 0.016 µg/mL (≈ 0.0214 µM)
- Minimum inhibitory concentration (MIC), antibiotic dose [1, 8]: 0.016 µg/mL (≈ 0.0214 µM)
- Minimum inhibitory concentration (MIC), antibiotic dose [1, 9]: 0.032 µg/mL (≈ 0.0427 µM)
- Susceptibility according to the MIC analysis ([1]; all strains used): susceptible
- ΔVITA A/B (no antibiotic / plus antibiotic) ([2]; 1 h PT): 3.77
- ΔVITA A/B (no antibiotic / plus antibiotic) ([2]; 6 h PT): 2.12

SMILES: C[C@H]1c2cccc(O)c2C(=O)C2=C(O)[C@]3(O)C(=O)C(C(N)=O)=C(O)[C@@H](N(C)C)[C@@H]3[C@@H](O)[C@@H]21 [Doxycycline]
- ΔVITA Ratio A/B ([3]; Table 12b: Strain 1, 0.256 μg/mL): 1.48
- VITA Index ([3]; Table 12b: Strain 1, plus antibiotic 0.256 μg/mL): 2.80
- ΔVITA Ratio A/B ([3]; Table 12b: Strain 2, 0.256 μg/mL): 1.24
- VITA Index ([3]; Table 12b: Strain 2, plus antibiotic 0.256 μg/mL): 3.92
- ΔVITA Ratio A/B ([3]; Table 12b: Strain 3, 0.256 μg/mL): 1.32
- VITA Index ([3]; Table 12b: Strain 3, plus antibiotic 0.256 μg/mL): 5.64
- ΔVITA Ratio A/B ([3]; Table 12b: Strain 5, 0.256 μg/mL): 1.43
- VITA Index ([3]; Table 12b: Strain 5, plus antibiotic 0.256 μg/mL): 5.01
- Minimum inhibitory concentration (MIC), antibiotic dose [1, 5]: 0.128 µg/mL (≈ 0.288 µM)
- Minimum inhibitory concentration (MIC), antibiotic dose [1, 6]: 0.064 µg/mL (≈ 0.144 µM)
- Minimum inhibitory concentration (MIC), antibiotic dose [1, 7]: 0.032 µg/mL (≈ 0.072 µM)
- Minimum inhibitory concentration (MIC), antibiotic dose [1, 8]: 0.064 µg/mL (≈ 0.144 µM)
- Minimum inhibitory concentration (MIC), antibiotic dose [1, 9]: 0.064 µg/mL (≈ 0.144 µM)

SMILES: CO[C@H]1/C=C/O[C@@]2(C)Oc3c(C)c(O)c4c(O)c(c(/C=N/N5CCN(C)CC5)c(O)c4c3C2=O)NC(=O)/C(C)=C\C=C\[C@H](C)[C@H](O)[C@@H](C)[C@@H](O)[C@@H](C)[C@H](OC(C)=O)[C@@H]1C [Rifampicin]
- ΔVITA Ratio A/B [4, 10]: 1.07
- ΔVITA Ratio A/B [4, 11]: 0.91
- VITA Index [4, 10]: 11.18
- VITA Index [4, 11]: 11.41
- ΔVITA Ratio A/B [4, 12]: 1.90
- ΔVITA Ratio A/B [4, 13]: 1.80
- VITA Index [4, 12]: 4.69
- VITA Index [4, 13]: 4.41
- ΔVITA Ratio A/B ([3]; Table 13: Strain 1, 0.256 μg/mL): 3.54
- VITA Index ([3]; Table 13: Strain 1, plus antibiotic 0.256 μg/mL): 1.17
- ΔVITA Ratio A/B ([3]; Table 13: Strain 2, 0.256 μg/mL): 2.93
- VITA Index ([3]; Table 13: Strain 2, plus antibiotic 0.256 μg/mL): 1.66
- ΔVITA Ratio A/B ([3]; Table 13: Strain 3, 0.256 μg/mL): 4.70
- VITA Index ([3]; Table 13: Strain 3, plus antibiotic 0.256 μg/mL): 1.58
- ΔVITA Ratio A/B ([3]; Table 13: Strain 4, 0.256 μg/mL): 5.86
- VITA Index ([3]; Table 13: Strain 4, plus antibiotic 0.256 μg/mL): 1.68
- ΔVITA Ratio A/B ([3]; Table 13: Strain 5 (Rifampicin resistant), 0.256 μg/mL): 1.06
- VITA Index ([3]; Table 13: Strain 5 (Rifampicin resistant), plus antibiotic 0.256 μg/mL): 6.71
- Minimum inhibitory concentration (MIC), antibiotic dose [1, 5]: 0.008 µg/mL (≈ 0.00972 µM)
- Minimum inhibitory concentration (MIC), antibiotic dose [1, 6]: 0.004 µg/mL (≈ 0.00486 µM)
- Minimum inhibitory concentration (MIC), antibiotic dose [1, 7]: 0.004 µg/mL (≈ 0.00486 µM)
- Minimum inhibitory concentration (MIC), antibiotic dose [1, 8]: 0.004 µg/mL (≈ 0.00486 µM)
- Minimum inhibitory concentration (MIC), antibiotic dose [1, 9]: 8.192 µg/mL (≈ 9.95 µM)
